# Measured values: patent US20250129091A1, “THIENOPYRROLOTRIAZINE COMPOUNDS, THEIR PREPARATION AND THEIR THERAPEUTIC USE” (Sanofi, priority 2022, published 2025)
# Where two headings read alike, the source gives them in different places.
# Key:
# NLRP3 inflammasome = assay: IL-1β secretion assay (LPS-primed, nigericin-activated THP-1 cells, MSD readout); assay type: cell-based; conditions: Homo sapiens, read-out: IL1b IC50
# How it was run: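 THP-1 monocytes primed with LPS (10 ng/mL, 3 h, 37 °C), then co-incubated 2 h with serially diluted compound and nigericin 10 μM (final). Supernatant IL-1β measured by MSD electrochemiluminescence immunoassay. IC50 derived from four-parameter logistic fit of % inhibition versus concentration.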
# [1] = Brain over plasma ratio evaluation; assay type: in vivo; conditions: mouse, brain and plasma, iv; female C57B16 mice, single i.v. 1 mg/kg, 0.25 h post dosing, geometric mean of 3 animals
# Experimental: Brain Over Plasma Ratio Evaluation
# A solution of 3 mg of compound in a generic vehicle (Glycofurol/solutol/Dextrose 5%: 10%/5%/85%, adjusted at pH3), final concentration 0.2 mg/ml, are stirred overnight at ambient temperature whilst protected from light.
# Female C57B16 mice between the ages of 8-12 weeks are administered with the prepared solution, as single intravenous dose of 1 mg/kg into the tail vein with a dose volume of 5 ml/kg. A total of 3 animal replicates are evaluated for each compound utilizing a terminal sampling approach. After 0.25 h post dosing, under anesthesia, 400 μL of blood and the whole brain are collected. Blood sample is centrifuged at 4° C. for 10 minutes at 1500 g; brain is weighted, homogenized using deionized water to give a final ratio of (1/2:w/v). Plasma and brain concentrations are measured by an exploratory LC-MS/MS method.
# Individual brain over plasma concentration ratio is calculated for each animal, and geometric mean value is reported.
# TNF-α secretion = TNF-α secretion assay (PMA-differentiated THP-1 cells, LPS-triggered, MSD readout); assay type: cell-based; conditions: Homo sapiens, LPS 24 h; for inhibition at 3 µM: compound at 3 μM; for inhibition at 10 µM: compound at 10 μM
# Experimental: Monocytic THP-1 cells (DSMZ) were maintained in RPMI media (RPMI 1640 Medium (1×) +10% FBS, biowest S181H). Cells were then differentiated at 160,000 cells per well in 96-well flat bottom cell culture plates with RPMI+0.1% Bovine Serum Albumin solution and 0.5 μM phorbol 12-myristate 13-acetate (PMA; Sigma, ref:P8139) overnight at 37° C. Experimental compounds were prepared and added as described above. TNF-α secretion was triggered by the addition of 0.5 μg/mL LPS (invivoGen, tlrl-3pelps) and cells were incubated for 24 h. 2.5 μL supernatant was removed, and TNF-α levels were monitored using an MSD assay (mesoscale, K15049) according to manufacturers' instructions.
# IC50 values were calculated from the plot of percentage of inhibition versus the inhibitor concentration by a logistics fit according to: y=A2+(A1−A2)/(1+(x/IC50)^p) where y is the %-inhibition at the inhibitor concentration, x. A1 is the lowest inhibition value, i.e., 0%, and A2 the maximum inhibition value, i.e., 100%. The exponent, p, is the Hill coefficient. The curve fitting was conducted with an internally developed software.
"IC50 (NLRP3 inflammasome; THP-1, LPS-primed)",Kp at 0.25 h [1],SMILES,inhibition at 3 µM (TNF-α secretion),inhibition at 10 µM (TNF-α secretion),IC50 (NLRP3 inflammasome; LPS-primed)
101 nM,5.84,"CC(C)c1nn(CC(=O)N[C@@H]2CCCN(C3CCC3)C2)c(=O)c2cc3cc(Cl)sc3n12.O=CO [Example 10, (R)-2-(2-chloro-8-isopropyl-5-oxothieno[3′,2′:4,5]pyrrolo[1,2-d][1,2,4]triazin-6(5H)-yl)-N-(1-cyclobutylpiperidin-3-yl)acetamide formate]",3%,-11.9%,
45 nM,3.2,"CC(C)c1nn(CC(=O)N[C@@H]2CCCN(C3CCC3)C2)c(=O)c2cc3ccsc3n12.O=CO [Example 11, (R)—N-(1-cyclobutylpiperidin-3-yl)-2-(8-isopropyl-5-oxothieno[3′,2′:4,5]pyrrolo[1,2-d][1,2,4]triazin-6(5H)-yl)acetamide formate]",20.1%,-12.7%,
37 nM,1.56,"CC(C)c1nn(CC(=O)N[C@@H]2CCCN(CCCF)C2)c(=O)c2cc3ccsc3n12.O=CO [Example 41, (R)—N-(1-(3-fluoropropyl)piperidin-3-yl)-2-(8-isopropyl-5-oxothieno[3′,2′:4,5]pyrrolo[1,2-d][1,2,4]triazin-6(5H)-yl)acetamide formate]",,,
133 nM,0.42,"CC(C)c1nn(CC(=O)N[C@@H]2CCCN(CC3CC(F)(F)C3)C2)c(=O)c2cc3ccsc3n12.O=CO [Example 43, (R)—N-(1-((3,3-difluorocyclobutyl)methyl)piperidin-3-yl)-2-(8-isopropyl-5-oxothieno [3′,2′:4,5]pyrrolo[1,2-d][1,2,4]triazin-6(5H)-yl)acetamide formate]",,,

# Second part, the compound before the results:
SMILES,"IC50 (NLRP3 inflammasome; THP-1, LPS-primed)",Kp at 0.25 h [1],inhibition at 3 µM (TNF-α secretion),inhibition at 10 µM (TNF-α secretion),IC50 (NLRP3 inflammasome; LPS-primed)
"CC(C)c1nn(CC(=O)N[C@@H]2CCCN(C3CC3)C2)c(=O)c2cc3cc(Cl)sc3n12.O=C(O)C(F)(F)F [Example 6, (R)-2-(2-chloro-8-isopropyl-5-oxothieno[3′,2′:4,5]pyrrolo[1,2-d][1,2,4]triazin-6(5H)-yl)-N-(1-cyclopropylpiperidin-3-yl)acetamide 2,2,2-trifluoroacetate]",158 nM,7.58,,,
"C=O.CC(C)c1nn(CC(=O)N[C@@H]2CCCN(CC3CC3(F)F)C2)c(=O)c2cc3ccsc3n12 (stereo partly drawn) [Example 18, N-((3R)-1-((2,2-difluorocyclopropyl)methyl)piperidin-3-yl)-2-(8-isopropyl-5-oxothieno [3′,2′:4,5]pyrrolo[1,2-d][1,2,4]triazin-6(5H)-yl)acetamide compound with formaldehyde]",,1.56,9.6%,21.6%,236 nM
"CC(C)c1nn(CC(=O)NC2CCCN(C(C)(C)C)C2)c(=O)c2cc3cc(Br)sc3n12 (centres unmarked) [Example 59, 2-(4-bromo-12-isopropyl-9-oxo-3-thia-1,10,11-triazatricyclo[6.4.0.02,6]dodeca-2(6),4,7,11-tetraen-10-yl)-N-(1-tert-butyl-3-piperidyl)acetamide]",34 nM,1.15,,,
